According to article PMC2263054, “Functional evolution of the vitamin D and pregnane X receptors” (BMC Evolutionary Biology, 2007):
Structures can show the parent of a compound that is named as a salt. Where two headings read alike, the source gives them in different places.

Experiments:
Format in all cases: cell-based
[1] = target: T1, Xenopus laevis VDR (Xenopus laevis, UniProt O13124); experiment: luciferase reporter transactivation assay in HepG2-NTCP cells, GAL4/xlVDR LBD chimera with tk-UAS-Luc; details: screening for activators, at least three concentrations of each drug
T1 sequence (O13124 90-422): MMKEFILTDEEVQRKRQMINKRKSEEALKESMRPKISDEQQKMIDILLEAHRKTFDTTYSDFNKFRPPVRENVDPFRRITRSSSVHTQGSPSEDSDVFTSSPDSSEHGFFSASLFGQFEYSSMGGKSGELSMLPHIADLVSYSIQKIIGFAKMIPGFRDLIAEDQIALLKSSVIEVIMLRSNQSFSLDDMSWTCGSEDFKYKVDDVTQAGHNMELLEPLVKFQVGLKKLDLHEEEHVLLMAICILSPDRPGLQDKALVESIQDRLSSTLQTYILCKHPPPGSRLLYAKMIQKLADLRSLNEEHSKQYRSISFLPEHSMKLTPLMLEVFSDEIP

[2] = target: T2, Zebrafish VDR (Danio rerio, UniProt Q9PTN2); experiment: luciferase reporter transactivation assay in HepG2-NTCP cells, GAL4/zfVDR LBD chimera with tk-UAS-Luc; details: screening for activators, at least three concentrations of each drug
T2 sequence (Q9PTN2 121-453): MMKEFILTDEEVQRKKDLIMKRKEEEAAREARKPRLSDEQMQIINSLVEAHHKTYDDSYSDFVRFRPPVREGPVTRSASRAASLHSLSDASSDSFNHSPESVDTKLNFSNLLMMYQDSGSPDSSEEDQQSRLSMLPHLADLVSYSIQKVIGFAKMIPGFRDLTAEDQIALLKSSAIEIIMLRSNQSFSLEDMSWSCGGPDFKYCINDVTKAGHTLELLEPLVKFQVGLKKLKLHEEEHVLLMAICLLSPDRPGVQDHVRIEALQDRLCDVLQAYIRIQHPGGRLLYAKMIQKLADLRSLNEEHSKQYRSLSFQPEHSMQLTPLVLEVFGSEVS

[3] = target: T3, Sea lamprey VDR (Petromyzon marinus, UniProt Q7ZZY9)
T3 sequence (Q7ZZY9 92-406): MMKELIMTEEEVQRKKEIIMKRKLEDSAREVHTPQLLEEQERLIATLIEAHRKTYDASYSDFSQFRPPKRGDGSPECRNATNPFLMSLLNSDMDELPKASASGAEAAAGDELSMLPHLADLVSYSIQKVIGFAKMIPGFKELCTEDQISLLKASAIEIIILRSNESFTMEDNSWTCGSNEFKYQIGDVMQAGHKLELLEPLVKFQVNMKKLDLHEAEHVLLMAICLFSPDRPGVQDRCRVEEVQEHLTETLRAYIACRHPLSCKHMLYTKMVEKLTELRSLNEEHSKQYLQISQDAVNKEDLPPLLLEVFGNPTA

[4] = screening for activators, at least three concentrations of each drug

Structure (SMILES) | Effect on Xenopus laevis VDR [1] | Effect on zebrafish VDR [2] | Effect on sea lamprey VDR [3, 4] | Effect on sea lamprey VDR [3]
C[C@H](CCC(=O)O)[C@H]1CC[C@H]2[C@@H]3[C@H](O)[C@@H](O)[C@@H]4C[C@H](O)CC[C@]4(C)[C@H]3CC[C@]12C [a-Muricholic acid] | No effect | No effect | No effect | 
C[C@H](O)[C@H]1CC[C@H]2[C@@H]3CC[C@@H]4C[C@H](O[C@@H]5O[C@H](C(=O)O)[C@@H](O)[C@H](O)[C@H]5O)CC[C@]4(C)[C@H]3CC[C@]12C [Pregnanediol glucuronide] | No effect | No effect | No effect | 
C[C@]12CC[C@@H](O)C[C@H]1CC[C@@H]1[C@@H]2C(=O)C[C@@]2(C)[C@H]1CC[C@]2(O)C(=O)CO [Tetrahydrocortisone] | No effect | No effect | No effect | 
C[C@]12CC[C@@H]3c4ccc(O[C@@H]5O[C@H](C(=O)O)[C@@H](O)[C@H](O)[C@H]5O)cc4CC[C@H]3[C@@H]1CC[C@@H]2O [Estradiol 3-glucuronide] | No effect | No effect | No effect | 
C[C@]12CCC(=O)C=C1CC[C@@H]1[C@@H]2[C@@H](O)C[C@]2(C=O)[C@@H](C(=O)CO)CC[C@@H]12 [Aldosterone] | No effect | No effect | No effect | 
C[C@]12CC[C@@H](O)C[C@H]1CC[C@@H]1[C@@H]2[C@@H](O)C[C@@]2(C)[C@H]1CC[C@]2(O)C(=O)CO [Tetrahydrocortisol] | No effect | No effect | No effect | 
Cc1c(C)c2c(c(C)c1O)CCC(C)(COc1ccc(CC3SC(=O)NC3=O)cc1)O2 (stereo not drawn) [Troglitazone] | No effect | No effect | No effect | 
C#C[C@]1(O)CC[C@H]2[C@@H]3CCC4=CC(=O)CC[C@@H]4[C@H]3CC[C@@]21CC [Levonorgestrol] | No effect | No effect | No effect | 
C[C@]12CC[C@@H](O)C[C@H]1CC[C@@H]1[C@@H]2CC[C@]2(C)C(=O)CC[C@@H]12 [Etiocholanolone] | No effect | No effect | No effect | 
COc1c(C)c2c(c(O)c1C/C=C(\C)CCC(=O)O)C(=O)OC2 [Mycophenolic acid] | No effect | No effect | No effect | 
CC1=C(/C=C/C(C)=C/C=C/C(C)=C/C(=O)O)C(C)(C)CCC1 [All trans retinoic acid] | No effect | No effect | No effect | 
C[C@]12CC[C@H](O)C[C@@H]1CC[C@@H]1[C@@H]2CC[C@]2(C)C(=O)CC[C@@H]12 [5a-androstan-3b-ol-17-one] | No effect | No effect | No effect | 
CC(C)c1onc(-c2c(Cl)cccc2Cl)c1COc1ccc(/C=C/c2cccc(C(=O)O)c2)c(Cl)c1 [GW4064] | None of these three VDRs were activated | None of these three VDRs were activated | None of these three VDRs were activated | 
C[C@H](CCC(=O)O)[C@H]1CC[C@H]2[C@@H]3C(=O)C[C@@H]4C[C@H](O)CC[C@]4(C)[C@H]3CC(=O)[C@]12C [7,12-Diketolithocholic acid] | No effect | No effect | No effect | 
CC/C=C\C/C=C\C/C=C\C/C=C\C/C=C\C/C=C\CCC(=O)O [Docosa-4Z,7Z,10Z,13Z,16Z,19Z-hexanoic acid] | No effect | No effect | No effect | 
C[C@]12CC[C@@H]3c4ccc(O)cc4CC[C@H]3[C@@H]1[C@@H](O)[C@@H](O)[C@@H]2O [Estetrol] | No effect | No effect | No effect | 

Structure (SMILES) | Effect on Xenopus laevis VDR [1] | Effect on zebrafish VDR [2] | Effect on sea lamprey VDR [3, 4] | Effect on sea lamprey VDR [3]
C[C@H]([C@H](O)CCC(C)(C)O)[C@H]1CC[C@@]2(O)C3=CC(=O)[C@@H]4C[C@@H](O)[C@@H](O)C[C@]4(C)[C@H]3CC[C@]12C [Ecdysone] | No effect | No effect | No effect | 
CC[C@H](CC[C@@H](C)[C@H]1CC[C@H]2[C@@H]3CC=C4C[C@@H](O)CC[C@]4(C)[C@H]3CC[C@]12C)C(C)C [Beta-sitosterol] | No effect | No effect | No effect | 
CC1=CC(=O)c2ccccc2C1=O [Vitamin K3] | No effect | No effect | No effect | 
CC(=O)N[C@@H](CSC/C=C(\C)CCC=C(C)C)C(=O)O [Acetyl-geranyl-cysteine] | No effect | No effect | No effect | 
N[C@@H](Cc1cc(I)c(O)c(I)c1)C(=O)O.O.O [3,5-Diiodo-L-tyroside dihydrate] | No effect | No effect | No effect | 
CC(C)(Sc1ccc(CCN(CCCCC2CCCCC2)C(=O)NC2CCCCC2)cc1)C(=O)O [GW 7647] | No effect | No effect | No effect | 
C[C@H](CCC(=O)O)[C@H]1CC[C@H]2[C@@H]3[C@@H](O)[C@@H](O)[C@@H]4C[C@H](O)CC[C@]4(C)[C@H]3CC[C@]12C [b-Muricholic acid] | No effect | No effect | No effect | 
C[C@H](CCC(=O)O)[C@H]1CC[C@H]2[C@@H]3C[C@H](O)[C@@H]4C[C@H](O)CC[C@]4(C)[C@H]3CC[C@]12C [5b-Cholanic acid-3a,6a-diol] | No effect | No effect |  | No effect
C[C@H](O)[C@H]1CC[C@H]2[C@@H]3CC[C@@H]4C[C@H](O)CC[C@]4(C)[C@H]3CC[C@]12C [5b-Pregnan-3a,20a-diol] | No effect | No effect | No effect | 
COC(=O)[C@H]1[C@H]2C[C@@H]3c4[nH]c5cc(OC)ccc5c4CCN3C[C@H]2C[C@@H](OC(=O)c2cc(OC)c(OC)c(OC)c2)[C@@H]1OC [Reserpine] | No effect | No effect | No effect | 
CC(C)CCC[C@@H](C)[C@H]1CC[C@H]2[C@@H]3CC=C4C[C@@H](OS(=O)(=O)O)CC[C@]4(C)[C@H]3CC[C@]12C [Cholesteryl sulfate (5-cholesten-3b-ol), Cholesteryl sulfate] | No effect | No effect | No effect | 
CC(C)[C@H](C)CC[C@@H](C)[C@H]1CC[C@H]2[C@@H]3CC=C4C[C@@H](O)CC[C@]4(C)[C@H]3CC[C@]12C [Campesterol] | No effect | No effect | No effect | 
C[C@]12CCC(=O)C=C1CC[C@@H]1[C@@H]2CC[C@@]2(C)[C@H]1CC[C@]2(O)C(=O)CO [4-Pregnen-17,21-diol-3,20-dione] | No effect | No effect | No effect | 
CC(=O)[C@H]1CC[C@H]2[C@@H]3CC[C@@H]4C[C@H](O)CC[C@]4(C)[C@H]3CC[C@]12C [5b-Pregnan-3a-ol-20-one] | No effect | No effect | No effect | 
C[C@H](CCC(=O)NCC(=O)O)[C@H]1CC[C@H]2[C@@H]3CC[C@@H]4C[C@H](OS(=O)(=O)O)CC[C@]4(C)[C@H]3CC[C@]12C [Glycolithocholic acid 3-sulfate] | No effect | No effect | No effect | 
